Here are results for 20 compounds from patent publication US20260217708A1, “FUSED BENZAZEPINE DERIVATIVES FOR USE IN THE TREATMENT OF CANCER AND EPILEPSY” (UCB BIOPHARMA SRL, priority 2023, published 2026).

The target of experiment [1] is T1, system Xc^− (Homo sapiens, UniProt Q9UPY5).
T1 sequence (Q9UPY5 1-501): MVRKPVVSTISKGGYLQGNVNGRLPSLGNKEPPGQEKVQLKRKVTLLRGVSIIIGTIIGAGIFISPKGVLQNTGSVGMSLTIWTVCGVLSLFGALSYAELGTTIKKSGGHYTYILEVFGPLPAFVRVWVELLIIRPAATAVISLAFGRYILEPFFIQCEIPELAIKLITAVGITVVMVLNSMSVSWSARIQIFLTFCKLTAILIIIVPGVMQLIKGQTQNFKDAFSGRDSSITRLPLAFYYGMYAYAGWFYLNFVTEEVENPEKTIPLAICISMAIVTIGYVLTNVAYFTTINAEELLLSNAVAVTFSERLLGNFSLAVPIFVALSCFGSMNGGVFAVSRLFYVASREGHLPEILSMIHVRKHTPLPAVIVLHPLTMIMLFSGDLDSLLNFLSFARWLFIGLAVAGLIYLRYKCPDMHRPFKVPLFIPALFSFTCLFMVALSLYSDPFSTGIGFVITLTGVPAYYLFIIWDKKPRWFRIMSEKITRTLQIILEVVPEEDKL
T1 sequence (P08195 1-529 partner): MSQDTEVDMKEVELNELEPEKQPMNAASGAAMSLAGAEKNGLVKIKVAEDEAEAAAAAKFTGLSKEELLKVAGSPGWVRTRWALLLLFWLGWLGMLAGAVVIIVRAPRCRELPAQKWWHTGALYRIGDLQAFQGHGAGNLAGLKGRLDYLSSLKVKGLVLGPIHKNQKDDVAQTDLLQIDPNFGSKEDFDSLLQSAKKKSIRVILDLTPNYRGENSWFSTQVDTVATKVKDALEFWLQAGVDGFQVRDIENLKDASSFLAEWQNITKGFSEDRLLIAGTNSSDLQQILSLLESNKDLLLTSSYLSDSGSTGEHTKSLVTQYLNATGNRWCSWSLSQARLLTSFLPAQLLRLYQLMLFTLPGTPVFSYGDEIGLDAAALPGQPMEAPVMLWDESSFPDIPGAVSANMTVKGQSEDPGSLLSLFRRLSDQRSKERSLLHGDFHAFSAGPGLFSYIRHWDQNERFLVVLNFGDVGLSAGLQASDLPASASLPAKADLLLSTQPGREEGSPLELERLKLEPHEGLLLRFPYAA
As to the kind of experiment: Cystine-induced glutamate release assay. The class given is cell-based. More on the design: endogenous in cells; host or cells: H4 cells. The note with it: H4 cells, sodium-free HEPES buffer, 50 μM L-Cystine, 2 hours, Amplex Red glutamate readout; read-out: pIC50 Cystine-induced glutamate release assay (converted). In short, it runs like this: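 IC50 (reported as pIC50) normalized to DMSO 1% and Erastin 50 μM controls, from Amplex Red fluorescence of glutamate exported into supernatant. H4 cells were washed into sodium-free buffer to exclude EAAT transport, then given compound with 50 μM L-cystine for 2 h in the incubator.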

In experiment [2] the target is T1, system Xc^−. Kind of experiment: [^14C]L-Cystine uptake assay. The note with it: H4 cells, sodium-free HEPES buffer, 0.5 μM L-[14C]Cystine and 4.5 μM L-Cystine, 1 hour at 37° C.; read-out: pIC50 [^14C] L-Cystine uptake assay (converted). On the set-up: endogenous in cells; host or cells: H4 cells. The class given is cell-based. In short, it runs like this: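 Compound effect is given as pIC50, taken between controls of 1% DMSO and 50 μM Erastin. Human H4 cells were pretreated 15 min with compound in sodium-free buffer, then took up 0.5 μM [14C]cystine with 4.5 μM cold cystine for 1 hour at 37° C, read by scintillation proximity counting.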

Where only a bound is given, the exact number is not on record here.

Regarding `CC1C(=O)N(CC(=O)Nc2ccc(Cl)c(F)c2)c2cccc(F)c2-c2cccnc21` (single isomer, unassigned) [#409, N-(4-chloro-3-fluoro-phenyl)-2-[11-fluoro-5-methyl-6-oxo-5H-pyrido[2,3-d][1]benzazepin-7-yl]acetamide], the IC50 in experiment [1] and in experiment [2] was 15.8 to 39.8 nM throughout.

For `COc1cc2c(cn1)-c1cc(F)cnc1C(C)C(=O)N2CC(=O)Nc1ccc(Cl)c(F)c1` (single isomer, unassigned) [#410, N-(4-chloro-3-fluoro-phenyl)-2-[14-fluoro-5-methoxy-10-methyl-9-oxo-4,8,12-triazatricyclo[9.4.0.0^2,7]pentadeca-1(15),2(7),3,5,11,13-hexaen-8-yl]acetamide], the IC50 in experiment [1] and in experiment [2] was 15.8 to 39.8 nM each time.

In the case of `COc1cc2c(c(Cl)n1)-c1cccnc1C(C)C(=O)N2CC(=O)Nc1ccc(C(F)F)cc1` (single isomer, unassigned) [#411, 2-(3-chloro-5-methoxy-10-methyl-9-oxo-4,8,12-triazatricyclo[9.4.0.0^2,7]pentadeca-1(11),2(7),3,5,12,14-hexaen-8-yl]-N-[4-(difluoromethyl)phenyl)acetamide], the IC50 in experiment [1] and in experiment [2] was < 15.8 nM each time.

As to `COc1cc2c(c(F)n1)-c1ncccc1C(C)C(=O)N2CC(=O)Nc1ccc(Cl)c(F)c1` (single isomer, unassigned) [#413, N-(4-chloro-3-fluoro-phenyl)-2-[15-fluoro-13-methoxy-8-methyl-9-oxo-3,10,14-triazatricyclo[9.4.0.0^2,7]pentadeca-1(11),2,4,6,12,14-hexaen-10-yl]acetamide], the results for the IC50 in experiment [1] and in experiment [2] were 39.8 to 100 nM and 15.8 to 39.8 nM, respectively.

Turning to `CC1C(=O)N(CC(=O)Nc2ccc(Cl)c(F)c2)c2cc(Cl)cc(F)c2-c2nccnc21` (single isomer, unassigned) [#414, 2-[9-chloro-11-fluoro-5-methyl-6-oxo-5H-pyrazino[2,3-d][1]benzazepin-7-yl]-N-(4-chloro-3-fluoro-phenyl)acetamide], the IC50 in experiment [1] is 39.8 to 100 nM; in experiment [2] it was 15.8 to 39.8 nM.

As to `COc1cnc2c(c1)-c1cnc(C)cc1N(CC(=O)Nc1ccc(Cl)c(F)c1)C(=O)C2C` (single isomer, unassigned) [#415, N-(4-chloro-3-fluoro-phenyl)-2-[14-methoxy-5,10-dimethyl-9-oxo-4,8,12-triazatricyclo[9.4.0.0^2,7]pentadeca-1(15),2,4,6,11,13-hexaen-8-yl]acetamide], the IC50 in experiment [1] and in experiment [2] was < 15.8 nM throughout.

As for `CC1C(=O)N(CC(=O)Nc2ccc(C(F)F)cc2)c2cc(OC(F)F)nc(Cl)c2-c2cccnc21` (single isomer, unassigned) [#416, 2-[3-chloro-5-(difluoromethoxy)-10-methyl-9-oxo-4,8,12-triazatricyclo[9.4.0.0^2,7]pentadeca-1(15),2,4,6,11,13-hexaen-8-yl]-N-[4-(difluoromethyl)phenyl]acetamide], the IC50 is 15.8 to 39.8 nM in experiment [1] and < 15.8 nM in experiment [2].

With `CC1C(=O)N(CC(=O)Nc2ccc(Cl)c(F)c2)c2cc(Cl)cc(F)c2-c2ncncc21` (single isomer, unassigned) [#418, 2-[9-chloro-11-fluoro-5-methyl-6-oxo-5H-pyrimido[5,4-d][1]benzazepin-7-yl]-N-(4-chloro-3-fluoro-phenyl)acetamide], the IC50 in experiment [1] and in experiment [2] was 39.8 to 100 nM each time.

`CC1C(=O)N(CC(=O)Nc2ccc(Cl)c(F)c2)c2ccnc(F)c2-c2cc(F)cnc21` (single isomer, unassigned) [#419, N-(4-chloro-3-fluoro-phenyl)-2-[3,14-difluoro-10-methyl-9-oxo-4,8,12-triazatricyclo[9.4.0.0^2,7]pentadeca-1(15),2,4,6,11,13-hexaen-8-yl]acetamide]: the IC50 was 15.8 to 39.8 nM in experiment [1] and < 15.8 nM in experiment [2].

Turning to `Cc1cc2c(cc1C#N)-c1cc(F)cnc1C(C)C(=O)N2CC(=O)Nc1ccc(C(F)F)cc1` (single isomer, unassigned) [#420, 2-[10-cyano-2-fluoro-5,9-dimethyl-6-oxo-5H-pyrido[2,3-d][1]benzazepin-7-yl]-N-[4-(difluoromethyl)phenyl]acetamide], the IC50 in experiment [1] and in experiment [2] was < 15.8 nM each time.

As to `Cc1cc2c(c(Cl)n1)-c1cc(F)cnc1C(C)C(=O)N2CC(=O)Nc1ccc(C(C)(F)F)cc1` (single isomer, unassigned) [#423, 2-(3-chloro-14-fluoro-5,10-dimethyl-9-oxo-4,8,12-triazatricyclo[9.4.0.0^2,7]pentadeca-1(11),2,4,6,12,14-hexaen-8-yl)-N-[4-(1,1-difluoroethyl)phenyl]acetamide], the IC50 in experiment [1] and in experiment [2] was < 15.8 nM each time.

Regarding `Cc1cc2c(c(Cl)n1)-c1cc(F)cnc1C(C)C(=O)N2CC(=O)Nc1ccc(C(F)(F)F)cn1` (single isomer, unassigned) [#424, 2-(3-chloro-14-fluoro-5,10-dimethyl-9-oxo-4,8,12-triazatricyclo[9.4.0.0^2,7]pentadeca-1(11),2,4,6,12,14-hexaen-8-yl)-N-[5-(trifluoromethyl)-2-pyridyl]acetamide], the IC50 in experiment [1] and in experiment [2] was 15.8 to 39.8 nM each time.

On to `Cc1cc2c(cc1C)N(CC(=O)Nc1ccc(Cl)c(F)c1)C(=O)Cc1cccnc1-2` [#1, N-(4-chloro-3-fluoro-phenyl)-2-(9,10-dimethyl-6-oxo-5-H-pyrido[3,2-d][1]benzazepin-7-yl)acetamide], for which the IC50 in experiment [1] is 100 to 501 nM; in experiment [2] it was 39.8 to 100 nM.

Consider `Cc1cc2c(cc1C)N(CC(=O)Nc1ccc(Cl)c(F)c1)C(=O)Cc1ccncc1-2` [#2, N-(4-chloro-3-fluoro-phenyl)-2-(9,10-dimethyl-6-oxo-5H-pyrido[4,3-d][1]benzazepin-7-yl)acetamide], for which the IC50 in experiment [1] was 100 to 501 nM; in experiment [2] it was 15.8 to 39.8 nM.

With `Cc1cc2c(cc1C)N(CC(=O)Nc1ccc(Cl)c(F)c1)C(=O)Cc1ncccc1-2` [#3, N-(4-chloro-3-fluoro-phenyl)-2-(9,10-dimethyl-6-oxo-5-H-pyrido[2,3-d][1]benzazepin-7-yl)acetamide], the IC50 in experiment [1] is 100 to 501 nM; in experiment [2] it was 39.8 to 100 nM.

On to `Cc1ccc2c(n1)CC(=O)N(CC(=O)Nc1ccc(Cl)c(F)c1)c1cc(C)c(C)cc1-2` [#4, N-(4-chloro-3-fluoro-phenyl)-2-(3,9,10-trimethyl-6-oxo-5-H-pyrido[2,3-d][1]benzazepin-7-yl)acetamide], for which the IC50 in experiment [1] and in experiment [2] was 100 to 501 nM in each case.

Consider `Cc1cc2c(cc1C)-n1nccc1CC(=O)N2CC(=O)Nc1ccc(C(F)(F)F)cc1` [#5, 2-(8,9-dimethyl-5-oxo-4H-pyrazolo[5,1-d][1,5]benzodiazepin-6-yl)-N-[4-(trifluoromethyl)phenyl]acetamide], for which the IC50 in experiment [1] was 100 to 501 nM; in experiment [2], 39.8 to 100 nM.

For the compound `Cc1cc2c(cn1)-c1cnccc1CC(=O)N2CC(=O)Nc1ccc(C(F)(F)F)cc1` [#6, 2-(5-methyl-9-oxo-4,8,14-triazatricyclo[9.4.0.0^2,7]pentadeca-1(11),2(7),3,5,12,14-hexaen-8-yl)-N-[4-(trifluoromethyl)phenyl]acetamide], the IC50 in experiment [1] and in experiment [2] was 100 to 501 nM throughout.

Consider `O=C(CN1C(=O)Cc2cccnc2-c2cnc(Cl)cc21)Nc1ccc(C(F)(F)F)cc1` [#7, 2-(13-chloro-9-oxo-3,10,14-triazatricyclo[9.4.0.0^2,7]pentadeca-1(11),2(7),3,5,12,14-hexaen-10-yl)-N-[4-(trifluoromethyl)phenyl]acetamide], for which the figures for the IC50 in experiment [1] and in experiment [2] were 100 to 501 nM and 39.8 to 100 nM, respectively.

Consider `Cc1cc2c(cc1C)-n1ccnc1CC(=O)N2CC(=O)Nc1ccc(C(F)(F)F)cc1` [#8, 2-(8,9-dimethyl-5-oxo-4H-imidazo[1,2-a][1,5]benzodiazepin-6-yl)-N-[4-(trifluoromethyl)phenyl]acetamide], for which the IC50 in experiment [1] was 100 to 501 nM; in experiment [2], 39.8 to 100 nM.
